Experimental data from publication PMC10318822, “Phase 1 dose-escalation study to evaluate the safety, tolerability, pharmacokinetics, and anti-tumor activity of FCN-159 in adults with neurofibromatosis type 1-related unresectable plexiform neurofibromas” (BMC Medicine, 2023).
Several values for one entry are separate records, joined by “and”; a condition that tells them apart may be missing. Equal entries are not always repeated.

Tested on: adult patients with NF1-related PN
Experiment: Phase I dose-escalation: DLT, MTD, RP2D and drug-related TEAEs (CTCAE v5.0)
Method: This is a multicenter, open-label, single-arm, non-randomized, phase I dose-escalation trial to evaluate the safety, tolerability, pharmacokinetic (PK), and anti-tumor activity of orally administered FCN-159 in adult patients with NF1 (NCT04954001). Phase I commenced with dose escalation in adult patients following a standard 3 + 3 design (Supplementary Table S1) to determine the maximum tolerated dose (MTD) of FCN-159 administered daily under fasting conditions (defined as no food or drink 1 h before and 2 h after each dose) in 28-day cycles. Study drug was dispensed at the study site and patient adherence was monitored by the records of drug dispensation and return. Patients were on treatment until PD, death, patient's voluntary withdrawal from study treatment, or study termination. The study was followed for 2 years after the last patient in. The starting dose was 4 mg, escalating in cohorts of at least three evaluable patients at 6 mg, 8 mg, and 12 mg until the MTD was determined. The starting dose in this study was determined based on available data from a phase 1a, first-in-human study of FCN-159 in patients with advanced NRAS ^mut+ melanoma at the time of study design. […] Dose expansion at a likely RP2D level enrolled approximately six patients. The highest dose level with a dose-limiting toxicity (DLT) incidence rate ≤ 33% (0/3 or 1/6 patients) was to be considered the MTD. If patients experienced grade ≥ 3 and/or unacceptable toxic events that were considered as at least possibly related to the study treatment, the study treatment was discontinued and supportive treatment was given in accordance with local treatment routines. If the toxicity returned to grade ≤ 2 within 28 days after the occurrence, and there was no progression on patients’ conditions or the investigator believed that patients could benefit from the study treatment, the original dose could be maintained or reduced after discussion with medical monitor. After completion of the dose escalation part of the study, PK, efficacy, safety, and tolerability data were analyzed to select the RP2D.
Primary endpoints of the study were the DLT incidence rate, MTD, and RP2D. Secondary endpoints included other safety assessments, imaging tumor response (complete response [CR], PR, stable disease [SD], or progressive disease [PD]), and PK parameters of FCN-159. Adverse events were graded per CTCAE v5.0.
All patients underwent a complete medical history, physical examination, Eastern Cooperative Oncology Group (ECOG) assessment, and laboratory analysis of test results. Drug-related TEAEs, serious adverse events (SAEs), TEAEs of grade ≥ 3 toxicity, and TEAEs leading to drug discontinuation were reviewed on an ongoing basis. Efficacy was assessed by radiologic scans and clinical assessment. Tumor assessments per Response Evaluation in Neurofibromatosis Schwannomatosis criteria were performed by investigators using MRI volumetric analysis every 4 cycles within the first 2 years (± 7 days) and every 6 cycles after 2 years (± 14 days) until PD, death, patient's voluntary withdrawal from study treatment, or study termination. MRI sequences of […], T1- and T2-weighted sequences were chosen and the software of Extended Brilliance Workspace, SIGNA Premier and uExceed were used for MRI volumetric analysis. The same software was used for all tumor assessments at baseline and subsequent assessed timepoints of the same patient. Pain was assessed by an 11-point numerical rating scale (NRS-11).
The sample size for the dose-escalation study was estimated to be 24 based on the 3 + 3 method. Safety was analyzed in patients who received at least one dose of FCN-159 and had at least one safety assessment. DLT was assessed in the DLT analysis set, defined as patients who were enrolled in the dose-escalation study and met the DLT evaluation criteria.

Cn1c(=O)c(F)c(Nc2ccc(I)cc2F)c2c(=O)n(C3CC3)nc(-c3cccc(NS(=O)(=O)C4CC4)c3)c21 [FCN-159]
Drug-related TEAE: Mouth ulceration (8 mg (N = 8)): 1 (12.5) n (%)
Drug-related TEAE: Muscular weakness (8 mg (N = 8)): 1 (12.5) n (%)
Drug-related TEAE: Oedema peripheral (8 mg (N = 8)): 0 n (%)
Drug-related TEAE: Pain in extremity (8 mg (N = 8)): 0 n (%)
Drug-related TEAE: Paronychia (8 mg (N = 8)): 3 (37.5) n (%)
Drug-related TEAE: Prealbumin decreased (8 mg (N = 8)): 1 (12.5) n (%)
Drug-related TEAE: Protein urine present (8 mg (N = 8)): 2 (25.0) n (%)
Drug-related TEAE: Pruritus (8 mg (N = 8)): 1 (12.5) n (%)
Drug-related TEAE: QRS axis abnormal (8 mg (N = 8)): 0 n (%)
Drug-related TEAE: Rash (8 mg (N = 8)): 1 (12.5) n (%)
Drug-related TEAE: Sinus arrhythmia (8 mg (N = 8)): 0 n (%)
Drug-related TEAE: Sinus bradycardia (8 mg (N = 8)): 0 n (%)
Drug-related TEAE: Sinusitis (8 mg (N = 8)): 0 n (%)
Drug-related TEAE: Skin exfoliation (8 mg (N = 8)): 1 (12.5) n (%)
Drug-related TEAE: Specific gravity urine increased (8 mg (N = 8)): 2 (25.0) n (%)
Drug-related TEAE: Stomatitis (8 mg (N = 8)): 3 (37.5) n (%)
Drug-related TEAE: Supraventricular extrasystoles (8 mg (N = 8)): 0 n (%)
Drug-related TEAE: Total bile acids increased (8 mg (N = 8)): 0 n (%)
Drug-related TEAE: Tricuspid valve incompetence (8 mg (N = 8)): 2 (25.0) n (%)
Drug-related TEAE: Urinary occult blood positive (8 mg (N = 8)): 2 (25.0) n (%)
Drug-related TEAE: Urinary sediment present (8 mg (N = 8)): 1 (12.5) n (%)
Drug-related TEAE: Urinary tract infection (8 mg (N = 8)): 0 n (%)
Drug-related TEAE: Urine ketone body present (8 mg (N = 8)): 2 (25.0) n (%)
Drug-related TEAE: Urobilinogen urine increased (8 mg (N = 8)): 1 (12.5) n (%)
Drug-related TEAE: Urticaria (8 mg (N = 8)): 0 n (%)
Drug-related TEAE: Vision blurred (8 mg (N = 8)): 1 (12.5) n (%)
Drug-related TEAE: Visual acuity reduced (8 mg (N = 8)): 0 n (%)
Drug-related TEAE: pH urine decreased (8 mg (N = 8)): 2 (25.0) n (%)
Drug-related TEAE: pH urine increased (8 mg (N = 8)): 1 (12.5) n (%)
Subjects with any drug-related TEAE (8 mg (N = 8)): 8 (100) n (%)
Patients with DLT (grade 3 folliculitis) (8 mg, 1 of 8 patients): 16.7% and 12.5%
Subjects with grade 3 AEs (12 mg): four
Drug-related TEAE: Abdominal pain (12 mg (N = 4)): 0 n (%)
Drug-related TEAE: Acne (12 mg (N = 4)): 0 n (%)
Drug-related TEAE: Acne pustular (12 mg (N = 4)): 0 n (%)
Drug-related TEAE: Alanine aminotransferase increased (12 mg (N = 4)): 0 n (%)
Drug-related TEAE: Albumin globulin ratio decreased (12 mg (N = 4)): 0 n (%)
Drug-related TEAE: Alopecia (12 mg (N = 4)): 3 (75.0) n (%)
Drug-related TEAE: Amylase increased (12 mg (N = 4)): 1 (25.0) n (%)
Drug-related TEAE: Anemia (12 mg (N = 4)): 0 n (%)
Drug-related TEAE: Aortic dilatation (12 mg (N = 4)): 0 n (%)
Drug-related TEAE: Aspartate aminotransferase increased (12 mg (N = 4)): 0 n (%)
Drug-related TEAE: Asthenia (12 mg (N = 4)): 0 n (%)
Drug-related TEAE: Beta globulin decreased (12 mg (N = 4)): 0 n (%)
Drug-related TEAE: Beta globulin increased (12 mg (N = 4)): 0 n (%)
Drug-related TEAE: Blood alkaline phosphatase increased (12 mg (N = 4)): 2 (50.0) n (%)
Drug-related TEAE: Blood bilirubin increased (12 mg (N = 4)): 0 n (%)
Drug-related TEAE: Blood creatine phosphokinase increased (12 mg (N = 4)): 0 n (%)
Drug-related TEAE: Blood fibrinogen increased (12 mg (N = 4)): 4 (100) n (%)
Drug-related TEAE: Blood lactate dehydrogenase increased (12 mg (N = 4)): 1 (25.0) n (%)
Drug-related TEAE: Blood pressure increased (12 mg (N = 4)): 1 (25.0) n (%)
Drug-related TEAE: Blood urea increased (12 mg (N = 4)): 0 n (%)
Drug-related TEAE: Blood uric acid increased (12 mg (N = 4)): 0 n (%)
Drug-related TEAE: Breath odor (12 mg (N = 4)): 0 n (%)
Drug-related TEAE: Capillary disorder (12 mg (N = 4)): 0 n (%)
Drug-related TEAE: Constipation (12 mg (N = 4)): 2 (50.0) n (%)
Drug-related TEAE: Decreased appetite (12 mg (N = 4)): 0 n (%)
Drug-related TEAE: Dermatitis acneiform (12 mg (N = 4)): 0 n (%)
Drug-related TEAE: Diarrhea (12 mg (N = 4)): 0 n (%)
Drug-related TEAE: Drug eruption (12 mg (N = 4)): 0 n (%)
Drug-related TEAE: Dyslipidemia (12 mg (N = 4)): 0 n (%)
Drug-related TEAE: Ejection fraction decreased (12 mg (N = 4)): 0 n (%)
Drug-related TEAE: Electrocardiogram QT prolonged (12 mg (N = 4)): 0 n (%)
Drug-related TEAE: Electrocardiogram abnormal (12 mg (N = 4)): 2 (50.0) n (%)
Drug-related TEAE: Epistaxis (12 mg (N = 4)): 0 n (%)
Drug-related TEAE: Folliculitis (12 mg (N = 4)): 4 (100) n (%)
Drug-related TEAE: Functional gastrointestinal disorder (12 mg (N = 4)): 0 n (%)
Drug-related TEAE: Gamma-glutamyltransferase increased (12 mg (N = 4)): 0 n (%)
Drug-related TEAE: Gingival pain (12 mg (N = 4)): 0 n (%)
Drug-related TEAE: Hyperlipidemia (12 mg (N = 4)): 1 (25.0) n (%)
Drug-related TEAE: Hypertension (12 mg (N = 4)): 0 n (%)
Drug-related TEAE: Hypoalbuminemia (12 mg (N = 4)): 0 n (%)
Drug-related TEAE: Hypocalcemia (12 mg (N = 4)): 0 n (%)
Drug-related TEAE: Hypophosphatemia (12 mg (N = 4)): 0 n (%)
Drug-related TEAE: Hypoproteinemia (12 mg (N = 4)): 0 n (%)
Drug-related TEAE: Immunoglobulins increased (12 mg (N = 4)): 0 n (%)
Drug-related TEAE: Impetigo (12 mg (N = 4)): 0 n (%)
Drug-related TEAE: Left atrial enlargement (12 mg (N = 4)): 0 n (%)
Drug-related TEAE: Lipoprotein abnormal (12 mg (N = 4)): 0 n (%)
Drug-related TEAE: Malaise (12 mg (N = 4)): 0 n (%)
Drug-related TEAE: Menstrual disorder (12 mg (N = 4)): 2 (50.0) n (%)
Drug-related TEAE: Mitral valve incompetence (12 mg (N = 4)): 1 (25.0) n (%)
Drug-related TEAE: Mouth ulceration (12 mg (N = 4)): 3 (75.0) n (%)
Drug-related TEAE: Muscular weakness (12 mg (N = 4)): 0 n (%)
Drug-related TEAE: Oedema peripheral (12 mg (N = 4)): 0 n (%)
Drug-related TEAE: Pain in extremity (12 mg (N = 4)): 0 n (%)
Drug-related TEAE: Paronychia (12 mg (N = 4)): 0 n (%)
Drug-related TEAE: Prealbumin decreased (12 mg (N = 4)): 0 n (%)
Drug-related TEAE: Protein urine present (12 mg (N = 4)): 0 n (%)
Drug-related TEAE: Pruritus (12 mg (N = 4)): 0 n (%)
Drug-related TEAE: QRS axis abnormal (12 mg (N = 4)): 3 (75.0) n (%)
Drug-related TEAE: Rash (12 mg (N = 4)): 0 n (%)
Drug-related TEAE: Sinus arrhythmia (12 mg (N = 4)): 0 n (%)
Drug-related TEAE: Sinus bradycardia (12 mg (N = 4)): 0 n (%)
Drug-related TEAE: Sinusitis (12 mg (N = 4)): 1 (25.0) n (%)
Drug-related TEAE: Skin exfoliation (12 mg (N = 4)): 0 n (%)
Drug-related TEAE: Specific gravity urine increased (12 mg (N = 4)): 0 n (%)
Drug-related TEAE: Stomatitis (12 mg (N = 4)): 0 n (%)
Drug-related TEAE: Supraventricular extrasystoles (12 mg (N = 4)): 0 n (%)
Drug-related TEAE: Total bile acids increased (12 mg (N = 4)): 0 n (%)
Drug-related TEAE: Tricuspid valve incompetence (12 mg (N = 4)): 0 n (%)
Drug-related TEAE: Urinary occult blood positive (12 mg (N = 4)): 0 n (%)
Drug-related TEAE: Urinary sediment present (12 mg (N = 4)): 0 n (%)
Drug-related TEAE: Urinary tract infection (12 mg (N = 4)): 0 n (%)
Drug-related TEAE: Urine ketone body present (12 mg (N = 4)): 0 n (%)
Drug-related TEAE: Urobilinogen urine increased (12 mg (N = 4)): 0 n (%)
